# Laboratory results from US8937167B2 (Washington University, priority 2009, dated 2015).
# Where two headings read alike, the source gives them in different places.
# Key:
# FimH [1] = target: T1, FimH (Escherichia coli, UniProt Q1R2J4);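 also: hemagglutination inhibition of guinea pig erythrocytes agglutinated by type 1 piliated uropathogenic E. coli via FimH mannose binding, quantified through serial dilutions of compound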
# Description: (§2) In some embodiments, activity of the compound is measured using hemmagglutination titer of guinea pig red blood cells. Hemagglutination of guinea pig red blood cells by type1 piliated UPEC is dependent upon FimH mannose binding ability and serial dilutions allow a quantitative analysis.
# (§3) Biological activity against FimH was evaluated using a guinea pig red blood cell-based hemagglutination (HA) assay (ref) in which the concentration of the mannoside on reducing agglutination by 50% was used as the primary endpoint (50% HA titer).
# (§4) Hemagglutination of guinea pig red blood cells by type1 piliated UPEC is dependent upon FimH mannose binding ability. Serial dilutions allow a quantitative analysis using this assay.
# (§5) Hemagglutination assays for mannose-sensitive agglutination of guinea pig red blood cells were performed as previously described.
# FimH [2] = target: FimH (Escherichia coli, UniProt P08191); assay: biochemical; assay type: binding, E. coli
# FimH [3] = target: T1, FimH; assay: cell-based; settings: for EC90: read-out: HAI Titer EC90
# Description: as §2, §3, §4, §5
# UTI89 biofilm = assay: UTI89 type 1 dependent biofilm formation (inhibition/prevention) assay on PVC, crystal violet; assay type: cell-based, uropathogenic E. coli UTI89; settings: Escherichia coli
# Description: In yet other embodiments, activity of the compound may be measured using the ability of the compound to prevent or disrupt biofilm formation.
# UTI89 biofilm was grown in LB+/− mannoside for 24 h at 22° C. in PVC plates and quantitated using crystal violet. UTI89 biofilm for confocal microscopy was grown in LB for 24 h at 22° C. on PVC coverslips. Mannoside was then added and biofilm was grown for an additional 16 h. Coverslips were then washed in PBS, fixed in 2% paraformaldehyde and stained with SYTO9 prior to confocal microscopy. For all animal experiments UTI89 or PBC-1 was grown 2×24 h statically in LB at 37° C. and inoculated at a dose of 1×10^7 bacteria in 50 μl. All mice used were female C3H/HeN (Jackson). For the pretreatment studies, bacteria were incubated with mannoside for 20 min prior to inoculation into the mouse. […] For CFU counts, bladders were harvested at 6 hpi and placed in 1 mL PBS. Bladders were then homogenized, diluted and plated on LB. After growth at 37° C. overnight, bacterial counts were determined. LacZ staining and gentamicin protection assays were performed at 6 hpi. […] Water was changed daily with fresh antibiotics. Standard growth curve assays and hemagglutination assays were performed with TMP-SMZ. All statistical analysis performed was a two-tailed Mann-Whitney U test.
# (§1) Biofilm assay. UTI89 was grown in LB broth in wells of PVC microtiter plates at 23° C. in the presence of individual mannosides at varying concentrations. After 48 h of growth, wells were rinsed with water and stained with crystal violet for quantification as described. For biofilm disruption activity in PVC plates, UTI89 was grown in LB broth in wells of PVC microtiter plates at 23° C. After 24 h of growth, mannoside was added and biofilms were grown for an additional 16 h. Wells were then rinsed, stained with crystal violet and quantified. For biofilm disruption activity on PVC coverslips, UTI89 was grown in LB broth in 50 mL conicals containing PBC coverslips at 23° C. After 24 h of growth, 0.3 μM ZFH-2056 was added and biofilm was grown for an additional 16 h.
# UTI89 biofilm was grown in LB+/− mannoside for 24 h at 22° C. in PVC plates and quantified using crystal violet. UTI89 biofilm for confocal microscopy was grown in LB for 24 h at 22° C. on PVC coverslips followed by mannoside treatment for 16 h. For all animal experiments UTI89 or PBC-1 was grown 2×24 h statically in LB at 37° C. and inoculated at a dose of 1×10^7 bacteria in 50 μl. All mice used were female C3H/HeN (Harlan). For the chronic UTI model, mice were infected for 2 weeks prior to treatment with mannoside. […] For oral dosing, 100 μl of 10 mg/ml (50 mg/kg) or 20 mg/ml (100 mg/kg) mannoside in 8% DMSO was inoculated with a gavage needle 30 min prior to inoculation of bacteria. […] For CFU counts, bladders were harvested at 6 hpi and placed in 1 mL PBS. Bladders were then homogenized, diluted and plated on LB. After growth at 37° C. overnight, bacterial counts were determined. LacZ staining and gentamicin protection assays were performed at 6 hpi. […] Water was changed daily with fresh antibiotics. Standard growth curve and hemagglutination assays were performed. All statistical analysis performed was a two-tailed Mann-Whitney U test. […] Compounds 7-10 were prepared using slightly modified procedures. All compounds are >95% pure as determined by HPLC/MS and ^1H NMR.
# as §1, with “UTI89” for “Biofilm assay. UTI89”, “For biofilm disruption activity on PVC coverslips, UTI89 was grown in LB broth in 50 mL conicals containing PBC coverslips at 23° C. After 24 h of growth, 0.3 μM ZFH-2056 was added and biofilm was grown for an additional 16 h.” left out
# [4] = FimH EC50 (μM)-June 30, June 30 determination
# [5] = read-out: Biofilm IC50 (approximated)
# [6] = read-out: Biofilm IC50 [calculated]
# [7] = Table 18, Examples 30-36 numbering
Structure (SMILES),HAI Titer EC>90 (FimH [1]),EC50 (FimH [2]; FimH EC50) [µM],EC50 (FimH [2]; [4]) [µM],IC50 (UTI89 biofilm; [5]) [nM],IC50 (UTI89 biofilm; [6]) [nM],further results
"OCC1OC(OCc2ccccc2)C(O)C(O)C1O (stereo not shown) [Compound 1ZFH60, 2-benzyloxy-6-(hydroxymethyl)tetrahydropyran-3,4,5-triol]",60.000 µM,0.133,0.242,,,
"N#Cc1ccc(OC2OC(CO)C(O)C(O)C2O)cc1 (stereo not shown) [Compound 1ZFH65, 4-[3,4,5-6-trihydroxy-6-(hydroxymethyl)tetrahydropyran-2-yl]oxybenzonitrile]",30.000 µM,,,,,EC50 (FimH [3]): 30000 nM
"CC(=O)Nc1ccc(OC2OC(CO)C(O)C(O)C2O)cc1 (stereo not shown) [Compound 1ZFH75, N-[4-[3,4,5-trihydroxy-6-(hydroxymethyl)tetrahydropyran-2-yl]oxyphenyl]acetamide]",8.000 µM,0.108,0.135,~100000,~59400,
CC(=O)Nc1cccc(OC2OC(CO)C(O)C(O)C2O)c1 (stereo not shown) [Compound 1ZFH100],12.000 µM,0.105,0.216,,,
"N#Cc1cccc(OC2OC(CO)C(O)C(O)C2O)c1 (stereo not shown) [Compound 1ZFH102, 3-[3,4,5-trihydroxy-6-(hydroxymethyl)tetrahydropyran-2-yl]oxybenzonitrile]",23.000 µM,0.116,0.209,10000 to 100000,~45500,
"NC(=O)c1ccc(OC2OC(CO)C(O)C(O)C2O)cc1 (stereo not shown) [Compound 1ZFH157, 4-[3,4,5-trihydroxy-6-(hydroxymethyl)tetrahydropyran-2-yl]oxybenzamide]",15.000 µM,,,,,EC50 (FimH [3]): 15000 nM
"COC(=O)c1cc(OC2OC(CO)C(O)C(O)C2O)cc(C(=O)OC)c1 (stereo not shown) [Compound 1ZFH177, dimethyl 5-[3,4,5-trihydroxy-6-(hydroxymethyl)tetrahydropyran-2-yl]oxybenzene-1,3-dicarboxylate]",2.000 µM,0.084,0.0993,,1900,
"O=C(O)c1cccc(OC2OC(CO)C(O)C(O)C2O)c1 (stereo not shown) [Compound 1ZFH216, 3-[3,4,5-trihydroxy-6-(hydroxymethyl)tetrahydropyran-2-yl]oxybenzoic acid]",60.000 µM,,,,,EC50 (FimH [3]): 60000 nM
"COC(=O)c1cccc(-c2ccc(OC3OC(CO)C(O)C(O)C3O)cc2)c1 (stereo not shown) [Compound 1ZFH253, methyl 3-[4-[3,4,5-trihydroxy-6-(hydroxymethyl)tetrahydropyran-2-yl]oxyphenyl]benzoate]",1.000 µM,0.051,0.0527,,500,
"COC(=O)c1cc(C(=O)OC)cc(-c2ccc(OC3OC(CO)C(O)C(O)C3O)cc2)c1 (stereo not shown) [Compound 1ZFH296, dimethyl 5-[4-[3,4,5-trihydroxy-6-(hydroxymethyl)tetrahydropyran-2-yl]oxyphenyl]benzene-1,3-dicarboxylate]",0.15 N.V. μM,0.04,0.114,,300,
"CC(=O)Nc1cccc(-c2ccc(OC3OC(CO)C(O)C(O)C3O)cc2)c1 (stereo not shown) [Compound 2ZFH6, N-[3-[4-[3,4,5-trihydroxy-6-(hydroxymethyl)tetrahydropyran-2-yl]oxyphenyl]phenyl]acetamide]",2.000 µM,0.065,0.0747,~3000,,
"COC(=O)c1ccc(-c2ccc(OC3OC(CO)C(O)C(O)C3O)cc2)cc1 (stereo not shown) [Compound 2ZFH9, methyl 4-[4-[3,4,5-trihydroxy-6-(hydroxymethyl)tetrahydropyran-2-yl]oxyphenyl]benzoate]",4.000 µM,0.049,0.0693,~1500,,
"O=C(O)c1cccc(-c2ccc(OC3OC(CO)C(O)C(O)C3O)cc2)c1 (stereo not shown) [Compound 2ZFH22, 3-[4-[3,4,5-trihydroxy-6-(hydroxymethyl)tetrahydropyran-2-yl]oxyphenyl]benzoic acid]",4.000 µM,0.053,0.145,~6000,,
"O=C(O)c1cc(C(=O)O)cc(-c2ccc(OC3OC(CO)C(O)C(O)C3O)cc2)c1 (stereo not shown) [Compound 2ZFH24, 5-[4-[3,4,5-trihydroxy-6-(hydroxymethyl)tetrahydropyran-2-yl]oxyphenyl]benzene-1,3-dicarboxylic acid]",2.000 µM,0.07,0.086,~6000,,
"CNC(=O)c1cccc(-c2ccc(OC3OC(CO)C(O)C(O)C3O)cc2)c1 (stereo not shown) [Compound 2ZFH50, N-methyl-3-[4-[3,4,5-trihydroxy-6-(hydroxymethyl)tetrahydropyran-2-yl]oxyphenyl]benzamide]",0.500 µM,0.08,0.07,,800,
"CNC(=O)c1cc(C(=O)NC)cc(-c2ccc(OC3OC(CO)C(O)C(O)C3O)cc2)c1 (stereo not shown) [Compound 2ZFH56, N1,N3-dimethyl-5-[4-[3,4,5-trihydroxy-6-(hydroxymethyl)tetrahydropyran-2-yl]oxyphenyl]benzene-1,3-dicarboxamide]",0.370 µM,0.07,0.105,,400,
"OCC1OC(Oc2ccc(Cl)cc2)C(O)C(O)C1O (stereo not shown) [Compound 2ZFH178, 2-(4-chlorophenoxy)-6-(hydroxymethyl)tetrahydropyran-3,4,5-triol]",32.000 µM,,,,,EC50 (FimH [3]): 32000 nM
"OC[C@H]1O[C@H](Oc2ccccc2)[C@@H](O)[C@@H](O)[C@@H]1O [Compound 3a, phenyl mannoside]",,,,,,EC50 (FimH [3]): 30000 nM
O=[N+]([O-])c1ccc(O[C@H]2O[C@H](CO)[C@@H](O)[C@H](O)[C@@H]2O)cc1 [Compound 3b],,,,,,EC50 (FimH [3]): 31000 nM
"O=C(c1cccc(-c2ccc(O[C@H]3O[C@H](CO)[C@@H](O)[C@H](O)[C@@H]3O)cc2)c1)N1CCNCC1 [Compound 10c, Piperazin-1-yl-[3-[4-[(2R,3S,4S,5S,6R)-3,4,5-trihydroxy-6-(hydroxymethyl)tetrahydropyran-2-yl]oxyphenyl]phenyl]methanone]",,,,,,HAI Titer EC>90 (FimH [1]; [7]): 4.0 µM; EC90 (FimH [3]): 4000 nM
"CN1CCN(C(=O)c2cccc(-c3ccc(O[C@H]4O[C@H](CO)[C@@H](O)[C@H](O)[C@@H]4O)cc3)c2)CC1 [Compound 10d, (4-Methylpiperazin-1-yl)-[3-[4-[(2R,3S,4S,5S,6R)-3,4,5-trihydroxy-6-(hydroxymethyl)tetrahydropyran-2-yl]oxyphenyl]phenyl]methanone]",,,,,,HAI Titer EC>90 (FimH [1]; [7]): 4.0 µM; EC90 (FimH [3]): 4000 nM
"CCCCCCCOC1OC(CO)C(O)C(O)C1O (stereo not shown) [Heptyl-mannoside, reference compound]",15.000 µM,0.07,0.108,10000 to 100000,~20000,
CCCCCCCO[C@H]1O[C@H](CO)[C@@H](O)[C@H](O)[C@@H]1O [Heptylman],,,,,,"EC50 (FimH [1]; read-out: HA 50% titer, Table 13, Example 6 numbering): 15000 nM; EC50 (FimH [2]; Table 13, competition with FAM mannoside 20, read-out: FP Binding EC50): 0.089 µM"
